According to paper PMC6657233 (Translational Oncology, 2019):

Biological target: T1, adenosine transporter (AT; NBMPR-sensitive equilibrative nucleoside transporter subtype, ENT) (Homo sapiens, UniProt Q99808)
T1 sequence (Q99808 2-456): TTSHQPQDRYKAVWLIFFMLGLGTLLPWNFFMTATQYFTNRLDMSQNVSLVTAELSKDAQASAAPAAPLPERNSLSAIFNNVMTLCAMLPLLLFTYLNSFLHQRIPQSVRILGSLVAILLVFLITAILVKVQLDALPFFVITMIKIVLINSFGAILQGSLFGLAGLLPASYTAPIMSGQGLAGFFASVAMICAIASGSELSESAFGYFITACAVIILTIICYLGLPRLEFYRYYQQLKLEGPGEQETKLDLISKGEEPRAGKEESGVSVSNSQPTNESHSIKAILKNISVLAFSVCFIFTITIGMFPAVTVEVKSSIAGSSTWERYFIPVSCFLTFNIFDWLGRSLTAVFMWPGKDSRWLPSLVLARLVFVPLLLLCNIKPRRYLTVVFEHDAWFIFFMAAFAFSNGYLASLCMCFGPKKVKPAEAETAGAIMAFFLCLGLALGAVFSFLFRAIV
Test: [3H]adenosine uptake inhibition in HeLa cells
Format: cell-based
Details: read-out: Findings

IC50: 280 nM
SMILES: COCCOc1cnc2ccn([C@H](C)c3nnc4c(F)cc(-c5cnn(C)c5)cn34)c(=O)c2c1 [AMG 337]
